Results on 3 molecules are retold here after patent publication US20240140953A1, “INHIBITORS OF MENIN-MLL INTERACTION” (BIOMEA FUSION, INC., priority 2018, published 2024).

SMILES strings stand for the structures. Like-named read-outs stand apart in the source and are kept apart here.

Assay [1] concerns MOLM-13. Nature of the assay: Long term proliferation, Cell Titer-Glo (Table 3B), MOLM-13. In kind it is cell-based. The note with it: Homo sapiens, MOLM-13, Cell Titer-Glo. (In general: Cellular ATP, detected with luciferase, serves as a proxy for viable cell number.)
The test system of assay [2] is OCI-AML-3. Nature of the assay: Long term proliferation, Cell Titer-Glo (Table 3B), OCI-AML-3. The assay is classed as cell-based. Conditions: Homo sapiens, OCI-AML-3, Cell Titer-Glo.
Another assay relates to KG-1. Nature of the assay: Long term proliferation, InCell (Table 3C), KG-1. In kind it is cell-based. The note with it: Homo sapiens, KG-1, InCell. Here is the method:
(§1) Compounds of invention are tested in the 5 suspension lines by 14-day long-term proliferation assay.
(§2) The compound is tested in 10-pt dose titration (client will determine the starting concentration and the dilution scheme) and the final DMSO concentration is kept at 0.2%.
(§3) Vehicle and media control are also included. All treatments are done in triplicate.
(§4) • 1) On Day 0, in a flat bottom 96-well plate, add 100 μL of cells per well at the densities optimized. • 2) Prepare compounds in DMSO at 500× final concentration. Dilute the compounds with DMSO at the dilution. • 3) Dilute the compounds in media at 3×final concentration. Add 50 μL of compound or DMSO at 3× final concentration to each well. Final volume in each well is 150 μL, and final concentration of DMSO is 0.2%. Also include 3 untreated control wells, by adding 50 μL of media alone. 4) Incubate plates for 96 hours. • 5) Count the cells using the Acumen, with capabilities for 96-well plates. Pipette cells up and down to mix in each well, and add desired volume of cells to a new flat bottom poly-D-lysine 96-well plate. Add Calcein AM at 1 μM final concentration. Let cells sit at RT for 10 mins followed by a quick spin to get cells settled on the bottom of the wells. Incubate the plate for additional 40 mins in the incubator. Take out the plate and read by Acumen. Calculate the cell numbers taken into account the dilution factors. • 6) Split the master plate. To do this take the total viable cell count calculated using step 5). Take the average of the replicates for each dose in order to be used in splitting the cells. • 7) Use a 96 well V-bottom plate to spin down the cells to remove old media and compound to split the cells. Based on the split ratio place the proper amount of media and cells into the V-bottom plate, and spin the plate at 1100 rpm for 5 minutes. • 8) Following the spin remove the media, careful not to disturb the cellpellet. • 9) Re-suspend pellet in 100 μL fresh media, and add to a new 96-well flat bottom plate. • 10) Add fresh compound, in the same manner as Step 3). • 11) Incubate plates for 72 hours. Repeat steps 5)-10) on Day 7. • 12) Incubate plates for 96 hours. Repeat Step 5)-10) on Day 11. • 13) Incubate 72 hours and repeat step 5) to take a final count. • 14) Data Analysis
(§5) To calculate growth for days 4, 7, 11, and 14: • Calculate the split factor for day 4 to 7, day 7 to 11, and day 11-14.

Assay [3] concerns MOLM-13. Nature of the assay: Long term proliferation, InCell (Table 3C), MOLM-13. In kind it is cell-based. Conditions: Homo sapiens, MOLM-13, InCell. Here is the method:
as §1, §2, §3, §4, §5

Assay [4] relates to OCI-AML-3. Nature of the assay: Long term proliferation, InCell (Table 3C), OCI-AML-3. The note with it: Homo sapiens, OCI-AML-3, InCell. In kind it is cell-based. The method, then: as §1, §2, §3, §4, §5
Another assay deals with MV4-11. Nature of the assay: Long term proliferation, InCell (Table 3C), MV4-11. In kind it is cell-based. The note with it: Homo sapiens, MV4-11, InCell. The method, then: as §1, §2, §3, §4, §5
In another assay the test system is HL-60. Nature of the assay: LTP assay, CellTiterGlo, T4-T14 (Example 103), HL-60. The note with it: for inhibition of cell viability (in words): HL-60, LTP assay. The assay is classed as cell-based. The method, then:
(§6) The day of the experiment (T0) all the cell line suspensions were counted by Cell Viability Analyser, Vi-CELL and properly diluted with fresh medium to obtain the cell density reported in the Test System paragraph.
(§7) Cells were tested after 4 passages after thawing.
(§8) 200 μL/well and 150 μL/well of cell suspension were added into the 0.4 μL/well and 0.3 μL/well compound plates, respectively. • Cell plate containing 200 μL/well suspension was incubated at 37° C. in a humidified incubator with 5% CO2. • From each well of the 150 μL/well cell assay plate, 100 μL were harvested and transferred into a 96-well Optiplate (Perkin Elmer, Cat. n. 6005290) and cell viability was measured as described in 4.3 paragraphs (T0).
(§9) After four days in culture (T4) 150 μL/well of fresh medium were added into a new 0.3 μL/well copy compound plate. • From each well of the 200 μL/well cell assay plate: • 100 μL were sampled for the cell viability measurement as described in 4.3 paragraphs (T4). • 50 μL were harvested and added to the 150 μL/well compound plate prepared as described in the first point to dilute 1:4 the cell suspension. • The cell assay plate diluted and containing 200 μL/well suspension were incubated at 37° C. in a humidified incubator with 5% Co2.
(§10) At T7-T11-T14 it was proceeded as described in T4, with the exception that no further cell dilution was carried out at T14.
(§11) Plates containing the samples to be tested were equilibrated at room temperature for approximately 30 min and then 30 μL/well of the Promega CellTiterGlo® reagent were added.
(§12) Contents will be mixed for 5 min on an orbital shaker to induce cell lysis and then incubated at room temperature for an additional 10 min to stabilize the luminescent signal.
(§13) Luminescence was read by using VictorV (Perkin Elmer) multilabel plate reader using the standard protocol for luminescence in 96 well plate.
(§14) Data were expressed as % of inhibition compared to the 0.2% DMSO negative control, and was calculated as follows: […]
(§15) CRCs were analysed by GraphPad and IC50 values were calculated by non-linear regression using 4 parameter-logistic equation. IC50 (μM) values were reported in the final data table.
(§16) The curve fittings were performed leaving free all the parameters. Any constrain were reported in the results table.

For another assay, the system named is RS4-11 (MLL-AF4). As to the kind of experiment: LTP assay, CellTiterGlo, T4-T14 (Example 103), RS4-11. Conditions: for inhibition of cell viability (in words): RS4;11, LTP assay. The assay is classed as cell-based. Here is the method: as §6, §7, §8, §9, §10, §11, §12, §13, §14, §15, §16
The target of a further assay is menin (Homo sapiens (Human), UniProt O00255). Nature of the assay: Kd (Table 3A). The assay is classed as binding.
menin, sequence (O00255 whole entry, species assumed): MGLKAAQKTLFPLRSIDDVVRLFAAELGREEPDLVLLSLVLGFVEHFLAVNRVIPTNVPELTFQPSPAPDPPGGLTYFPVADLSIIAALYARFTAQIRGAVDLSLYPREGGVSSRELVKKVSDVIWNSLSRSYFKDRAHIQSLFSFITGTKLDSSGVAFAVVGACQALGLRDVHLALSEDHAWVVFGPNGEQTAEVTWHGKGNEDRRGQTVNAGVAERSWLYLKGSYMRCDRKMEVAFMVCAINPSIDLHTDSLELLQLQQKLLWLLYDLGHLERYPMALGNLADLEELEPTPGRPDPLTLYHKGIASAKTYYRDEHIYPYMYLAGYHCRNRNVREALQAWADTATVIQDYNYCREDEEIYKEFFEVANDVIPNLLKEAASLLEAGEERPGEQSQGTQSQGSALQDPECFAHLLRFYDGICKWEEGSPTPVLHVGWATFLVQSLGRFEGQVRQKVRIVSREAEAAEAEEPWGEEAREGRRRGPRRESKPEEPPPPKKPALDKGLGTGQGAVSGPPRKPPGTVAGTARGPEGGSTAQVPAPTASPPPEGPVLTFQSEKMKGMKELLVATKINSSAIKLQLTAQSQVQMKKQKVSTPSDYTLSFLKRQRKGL
Setting [5] is: 96 h, Day 4, read-out: Day 4 IC50.
Setting [6] is: 168 h, Day 7, read-out: Day 7 IC50.
Where [7] appears, read: 264 h, Day 11, read-out: Day 11 IC50.
Where [8] appears, read: 336 h, Day 14, read-out: Day 14 IC50.
Setting [9] is: HL-60, T4 (Day 4), read-out: IC50 T4 (Day 4).
[10] abbreviates: Homo sapiens, HL-60, 96 h, HL-60, T4 (Day 4), read-out: IC50 T4 (Day 4).
The mark [11] stands for this setting: Homo sapiens, HL-60, HL-60, T7, read-out: IC50 T7.
[12] abbreviates: Homo sapiens, HL-60, HL-60, T11, read-out: IC50 T11.
Setting [13] is: Homo sapiens, HL-60, HL-60, T14, read-out: IC50 T14.
Where [14] appears, read: Homo sapiens, RS4-11, 96 h, RS4-11 (MLL-AF4), T4 (Day 4), read-out: IC50 T4 (Day 4).
Setting [15] is: Homo sapiens, RS4-11, RS4-11 (MLL-AF4), T7, read-out: IC50 T7.
Setting [16] is: Homo sapiens, RS4-11, RS4-11 (MLL-AF4), T11, read-out: IC50 T11.

As usually defined, the IC50 is the concentration that gives 50% inhibition. For the molecule `O=C(Nc1ccc(-c2cc3c(N4CCOCC4)ncnc3[nH]2)cc1)Nc1cc(-c2cccnc2)n[nH]1` [Compound 9, 1-{4-[4-(morpholin-4-yl)-7H-pyrrolo[2,3-d]pyrimidin-6-yl]phenyl}-3-[3-(pyridin-3-yl)-1H-pyrazol-5-yl]urea], the IC50 is 410 nM in the assay on MOLM-13 [1] (setting [5]); 240 nM in the assay with MOLM-13 [1] (setting [6]); 240 nM in the assay on MOLM-13 [1] (setting [7]); 480 nM with MOLM-13 [1] (setting [8]); 870 nM with OCI-AML-3 [2] (setting [5]); 710 nM in the assay with OCI-AML-3 [2] (setting [6]). For the same molecule, the IC50 with OCI-AML-3 [2] (setting [7]) was found to be 650 nM; in the assay with OCI-AML-3 [2] (setting [8]), 720 nM; in the assay with KG-1 (setting [5]) it was 3310 nM; with KG-1 (setting [7]), 2290 nM; with MOLM-13 [3] (setting [5]) it was 520 nM; in the assay with MOLM-13 [3] (setting [7]), 340 nM. Moreover, the IC50 was 370 nM in the assay on OCI-AML-3 [4] (setting [5]), 720 nM with OCI-AML-3 [4] (setting [7]), 500 nM in the assay on MV4-11 (setting [5]) and 430 nM in the assay on MV4-11 (setting [7]).

Take `Cn1nc(-c2cccnc2)cc1CC(=O)Nc1ccc(-c2cc3c(N4CCOCC4)ncnc3[nH]2)cc1` [Compound 11, 2-[1-methyl-3-(pyridin-3-yl)-1H-pyrazol-5-yl]-N-{4-[4-(morpholin-4-yl)-7H-pyrrolo[2,3-d]pyrimidin-6-yl]phenyl}acetamide]: the “inhibition of cell viability (in words)” value in the assay with HL-60 and in the assay on RS4-11 (MLL-AF4) was “fully inhibited cell viability” each time. Also, the half-inhibitory concentration (IC50) in the assay with HL-60 (setting [9]) worked out at 692 nM; in the assay with HL-60 (HL-60, T7, read-out: IC50 T7), 389 nM; in the assay on HL-60 (setting [10]), 690 nM; in the assay with HL-60 (setting [11]), 390 nM; in the assay on HL-60 (setting [12]), 480 nM; in the assay on HL-60 (setting [13]) it was 470 nM. In addition, the concentration for half-maximal inhibition (IC50) was found to be 1230 nM in the assay with RS4-11 (MLL-AF4) (setting [14]); 850 nM with RS4-11 (MLL-AF4) (setting [15]); 110 nM in the assay with RS4-11 (MLL-AF4) (setting [16]); 851 nM with RS4-11 (MLL-AF4) (RS4-11 (MLL-AF4), T7, read-out: IC50 T7).

By Kd is commonly meant the concentration at which binding is half-saturated. The molecule `O=C(Cc1cc(-c2cccnc2)n[nH]1)Nc1ccc(-c2nc3c(N4CCOCC4)ncnc3[nH]2)cc1` [Compound 12, N-{4-[6-(morpholin-4-yl)-9H-purin-8-yl]phenyl}-2-[3-(pyridin-3-yl)-1H-pyrazol-5-yl]acetamide] showed a Kd on menin of 500 ± 200 nM. Besides, the figures for the “inhibition of cell viability (in words)” value in the assay with HL-60 and in the assay with RS4-11 (MLL-AF4) were “No activity” and “fully inhibited the cell viability”, respectively. For the same molecule, the IC50 in the assay on HL-60 (setting [9]) was above 10000 nM; in the assay on HL-60 (HL-60, T7, read-out: IC50 T7) it was above 10000 nM; with HL-60 (setting [10]) it was above 5000 nM; in the assay on HL-60 (setting [11]) it was above 5000 nM; in the assay with HL-60 (setting [12]), above 5000 nM; with HL-60 (setting [13]) it was above 5000 nM. For the same molecule, the results for the half-maximal inhibitory concentration (IC50) in the assay on RS4-11 (MLL-AF4) (setting [14]), in the assay on RS4-11 (MLL-AF4) (setting [15]) and in the assay on RS4-11 (MLL-AF4) (setting [16]) were 580 nM, 420 nM and 260 nM, respectively.
